Measurements: article PMC5848165 (Toxins, 2018)
Residues, ends and D or L forms follow the SMILES beside them.

Columns and labels:
[1] = test system: TTX-S sodium channels from rat DRG neurons; assay: Whole-cell patch clamp, TTX-S sodium currents in rat DRG neurons; assay type: cell-based, rat (Sprague-Dawley); settings: 25 °C
[2] = test system: chimera #1, Nav1.5 (Nav1.7-DII-S3-S4); assay: Whole-cell patch clamp, chimera #1 in HEK293 cells; assay type: cell-based, rat Nav1.5 / human Nav1.7; settings: −10 mV from −80 mV
Source text: (§1) Many animal toxins alter activation or inactivation of sodium channels by binding to the S3–S4 regions of channels, which are probably the external linkers or voltage sensors of sodium channels. α-Scorpion toxins slow down fast-inactivation of sodium channels by binding to the extracellular linker loop of DIVS3-S4 (neurotoxin site 3). Meanwhile, β-scorpion toxins that interact with DIIS3-S4 linker enhance the activation of sodium channels by trapping DII voltage sensor in an activated state. As Nav1.5 channel is resistant to the inhibition of JZTX-34, we investigated the binding site of JZTX-34 to Nav1.7 by constructing chimeric channels between Nav1.5 and Nav1.7. […]
(§2) The HEK293T cells were maintained in standard culture conditions (5% CO2 and 37 °C). […] After culturing for 36–72 h, cells with obvious green fluorescence were selected for sodium currents recordings the internal solution for sodium currents recording that contained (in mM) 140 CsF, 5 NaCl, 10 HEPES, 3 Na2-ATP, and 10 EGTA. […]
(§3) Sodium currents were recorded from DRG, HEK293, and ND cells by the whole-cell patch-clamp technique at 25 °C. […] Experiments date were acquired from whole-cell Axon 700B patch clamp amplifier (Molecular Devices, Sunnyvale, CA, USA) and analyzed by the program Clampfit10.0 (Molecular Devices, Sunnyvale, CA, USA) and Sigmaplot. […]

[3] = test system: chimera #2, Nav1.7 (Nav1.5-DIV-S3-S4); assay: Whole-cell patch clamp, chimera #2 in HEK293 cells; assay type: cell-based, human Nav1.7 / rat Nav1.5; settings: n = 5, −10 mV from −80 mV
Source text: as §1, §2, §3

CC(C)C[C@@H]1NC(=O)[C@H](Cc2c[nH]c3ccccc23)NC(=O)[C@H](CCC(=O)O)NC(=O)[C@H](CCCNC(=N)N)NC(=O)[C@@H](NC(=O)[C@H](C)N)CSSC[C@@H]2NC(=O)[C@@H]3CSSC[C@@H](C(=O)N[C@H](C(=O)N[C@@H](Cc4c[nH]c5ccccc45)C(=O)N[C@@H](CC(=O)O)C(=O)N[C@@H](Cc4c[nH]c5ccccc45)C(=O)N[C@H](C(=O)N[C@H](C(=O)O)C(C)C)[C@@H](C)O)C(C)C)NC(=O)[C@H](Cc4c[nH]cn4)NC(=O)[C@H](Cc4ccc(O)cc4)NC(=O)[C@@H]4CCCN4C(=O)[C@H](Cc4c[nH]c5ccccc45)NC(=O)[C@H](CCCCN)NC(=O)[C@H](CCCCN)NC(=O)[C@H](CCCNC(=N)N)NC(=O)[C@H](CSSC[C@H](NC(=O)CNC(=O)CNC1=O)C(=O)N[C@@H](CO)C(=O)N[C@@H](CCCCN)C(=O)N[C@@H](CC(=O)O)C(=O)N[C@@H](C)C(=O)N[C@@H](CC(=O)O)C(=O)N3)NC(=O)[C@H](CCC(=O)O)NC(=O)[C@H](CC(C)C)NC(=O)[C@H](Cc1c[nH]cn1)NC(=O)[C@H](C)NC2=O [JZTX-34, Jingzhaotoxin-34] (HELM PEPTIDE1{A.C.R.E.W.L.G.G.C.S.K.D.A.D.C.C.A.H.L.E.C.R.K.K.W.P.Y.H.C.V.W.D.W.T.V}$PEPTIDE1,PEPTIDE1,2:R3-16:R3|PEPTIDE1,PEPTIDE1,9:R3-21:R3|PEPTIDE1,PEPTIDE1,15:R3-29:R3$$$V2.0; N-terminus and C-terminus assumed)
inhibition of TTX-S sodium currents ([1]; 1 µM synthetic JZTX-34, 50 ms depolarization to −10 mV from −80 mV): ~ 81%
IC50 ([1]; synthetic toxin, Hill fit, n = 5, −10 mV from −80 mV holding): 91 nM
inhibition of chimera #1 currents ([2]; 1 µM): 47.6 ± 3.6%
inhibition of chimera #1 currents ([2]; 10 µM): 79.5 ± 2.8%
inhibition of chimera #2 currents ([3]; 1 µM): 43.6 ± 4.5%
inhibition of chimera #2 currents ([3]; 10 µM): 76.3 ± 3.6%
